Results: ChEMBL document CHEMBL3813620, “Discovery of selective inhibitors of tyrosyl-DNA phosphodiesterase 2 by targeting the enzyme DNA-binding cleft” (Bioorg Med Chem Lett, 2016)
Calls of active or inactive are those of the source. The rule behind the calls is not given here.

Experiments:
[1] = target: T1, Tyrosyl-DNA phosphodiesterase 2 (Homo sapiens) (UniProt O95551); test: Inhibition of endogenous human TDP2 within whole cell extracts from human TDP2-complemented DT40 chicken cells using TY19 DNA as substrate after 15 mins by spectrophotometric analysis
T1 sequence (whole entry): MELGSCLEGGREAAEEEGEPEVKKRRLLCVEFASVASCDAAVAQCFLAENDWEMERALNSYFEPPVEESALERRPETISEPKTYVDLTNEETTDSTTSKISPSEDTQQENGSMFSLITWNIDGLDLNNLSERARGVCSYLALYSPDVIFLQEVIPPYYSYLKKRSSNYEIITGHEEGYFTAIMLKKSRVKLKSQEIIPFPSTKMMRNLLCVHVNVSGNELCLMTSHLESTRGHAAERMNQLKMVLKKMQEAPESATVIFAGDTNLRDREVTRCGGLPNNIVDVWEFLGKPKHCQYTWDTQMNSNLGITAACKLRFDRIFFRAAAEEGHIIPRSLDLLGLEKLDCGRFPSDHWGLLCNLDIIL

[2] = target: T2, Tyrosyl-DNA phosphodiesterase 1 (Homo sapiens, UniProt Q9NUW8); test: Inhibition of human recombinant TDP1 using 5'-[32P]-labeled N14Y as substrate after 15 mins by PAGE method
[3] = target: T3, Tyrosyl-DNA phosphodiesterase 2 (Mus musculus, UniProt Q9JJX7); test: Inhibition of mouse recombinant TDP2 using alpha32P-cordycepin-3'-labeled TY19 as substrate after 15 mins by PAGE method
T3 sequence (Q9JJX7 whole entry): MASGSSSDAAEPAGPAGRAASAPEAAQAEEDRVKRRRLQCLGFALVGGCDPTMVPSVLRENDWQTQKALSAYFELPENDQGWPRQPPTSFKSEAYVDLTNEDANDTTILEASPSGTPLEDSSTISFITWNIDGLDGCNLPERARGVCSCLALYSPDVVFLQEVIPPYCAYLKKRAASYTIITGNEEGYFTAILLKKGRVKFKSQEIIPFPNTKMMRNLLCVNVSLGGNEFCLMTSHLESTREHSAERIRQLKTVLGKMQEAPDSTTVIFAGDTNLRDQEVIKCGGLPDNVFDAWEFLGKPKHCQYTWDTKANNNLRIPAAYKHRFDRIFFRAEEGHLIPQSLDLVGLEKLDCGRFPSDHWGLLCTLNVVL

[4] = target: T4, Tyrosyl-DNA phosphodiesterase 2 (Danio rerio, UniProt Q5XJA0); test: Inhibition of zebra fish recombinant TDP2 using alpha32P-cordycepin-3'-labeled TY19 as substrate after 15 mins by PAGE method
T4 sequence (Q5XJA0 whole entry): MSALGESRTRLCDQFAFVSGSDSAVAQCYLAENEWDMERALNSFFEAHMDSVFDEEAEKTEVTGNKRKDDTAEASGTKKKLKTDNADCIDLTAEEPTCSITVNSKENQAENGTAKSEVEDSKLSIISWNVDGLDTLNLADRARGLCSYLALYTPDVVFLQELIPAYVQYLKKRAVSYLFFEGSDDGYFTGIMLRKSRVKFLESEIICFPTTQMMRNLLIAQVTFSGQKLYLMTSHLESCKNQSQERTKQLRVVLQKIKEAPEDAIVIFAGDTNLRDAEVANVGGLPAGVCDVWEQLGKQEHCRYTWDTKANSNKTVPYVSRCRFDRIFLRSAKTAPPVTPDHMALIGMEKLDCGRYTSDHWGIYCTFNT

[5] = target: T5, Tyrosyl-DNA phosphodiesterase 2 (Homo sapiens, UniProt O95551); test: Inhibition of human recombinant TDP2 using alpha32P-cordycepin-3'-labeled TY19 as substrate after 15 mins by PAGE method
T5 sequence (O95551 whole entry): T1 sequence (whole entry)

[6] = target: T5, Tyrosyl-DNA phosphodiesterase 2; test: Inhibition of human TDP2
[7] = target: T2, Tyrosyl-DNA phosphodiesterase 1; test: Effect on human TDP1 up to 200 uM

T2 sequence (Q9NUW8 whole entry): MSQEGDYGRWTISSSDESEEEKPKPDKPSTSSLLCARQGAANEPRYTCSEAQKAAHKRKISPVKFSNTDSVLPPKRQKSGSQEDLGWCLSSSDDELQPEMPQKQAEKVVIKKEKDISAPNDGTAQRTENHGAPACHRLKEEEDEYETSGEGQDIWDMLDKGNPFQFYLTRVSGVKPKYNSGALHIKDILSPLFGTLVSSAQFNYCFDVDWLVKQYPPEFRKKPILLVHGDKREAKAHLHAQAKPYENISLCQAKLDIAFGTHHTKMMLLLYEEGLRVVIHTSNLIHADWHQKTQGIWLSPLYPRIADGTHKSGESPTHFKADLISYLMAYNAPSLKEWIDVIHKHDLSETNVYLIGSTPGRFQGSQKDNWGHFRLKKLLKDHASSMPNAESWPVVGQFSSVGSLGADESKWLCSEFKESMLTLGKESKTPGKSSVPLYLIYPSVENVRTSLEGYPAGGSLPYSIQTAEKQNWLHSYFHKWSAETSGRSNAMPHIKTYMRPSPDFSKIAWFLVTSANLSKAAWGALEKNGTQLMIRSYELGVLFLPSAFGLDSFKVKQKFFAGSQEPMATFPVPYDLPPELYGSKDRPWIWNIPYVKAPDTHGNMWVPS

Row | IC50 [6] [µM] | Activity [7] | SMILES | inhibition [1] | IC50 [2] [µM] | IC50 [3] [µM] | IC50 [4] [µM] | IC50 [5] [µM]
1 | – | – | O=C(Cc1ccccc1)NC(CSSCC(NC(=O)Cc1ccccc1)C(=O)O)C(=O)O (stereo not given) | Active | > 111 | > 111 | 20 | 9
2 | – | – | N#CCCN(CCC#N)c1ccc(/C=C2\C(=O)N(c3ccc(S(=O)(=O)O)cc3)N=C2C(=O)O)cc1 | Active | > 111 | 15 | 5.2 | 3.5
3 | 12 | inactive | COc1ccc(CC2C(=O)N(c3ccc([N+](=O)[O-])cc3)N=C2C(=O)O)cc1Oc1ccc(F)cc1 (stereo not given) | – | – | – | – | –
4 | – | – | O=C(NC(CSSCC(NC(=O)c1ccccc1)C(=O)O)C(=O)O)c1ccccc1 (stereo not given) | Active | – | – | 15 | 4.1
